For the experiment, the target named is T1, full-length Abl1 NanoLuc fusion (Abl1-Nluc, NLuc-Abl1) (Homo sapiens, UniProt P00519).
T1 construct: full-length Abl1 fused to the C-terminus of NanoLuc luciferase (Promega plasmid), transiently expressed in HEK293T cells
Briefly: NanoBRET tracer isotherm in live HEK293T cells. The class given is cell-based. The note with it: labelled compound; […] h; ATP site; read-out: Kd,app. The text has this:
NanoBRET tracer isotherm in live HEK293T cells on full-length Abl1 NanoLuc fusion (Abl1-Nluc, NLuc-Abl1) | tracer probe (K-4, Promega), suitable for all mutants
For orientation: BRET reads energy transfer from a luciferase to a nearby fluorophore.

T1 sequence (P00519 whole entry, the tested form may be a part): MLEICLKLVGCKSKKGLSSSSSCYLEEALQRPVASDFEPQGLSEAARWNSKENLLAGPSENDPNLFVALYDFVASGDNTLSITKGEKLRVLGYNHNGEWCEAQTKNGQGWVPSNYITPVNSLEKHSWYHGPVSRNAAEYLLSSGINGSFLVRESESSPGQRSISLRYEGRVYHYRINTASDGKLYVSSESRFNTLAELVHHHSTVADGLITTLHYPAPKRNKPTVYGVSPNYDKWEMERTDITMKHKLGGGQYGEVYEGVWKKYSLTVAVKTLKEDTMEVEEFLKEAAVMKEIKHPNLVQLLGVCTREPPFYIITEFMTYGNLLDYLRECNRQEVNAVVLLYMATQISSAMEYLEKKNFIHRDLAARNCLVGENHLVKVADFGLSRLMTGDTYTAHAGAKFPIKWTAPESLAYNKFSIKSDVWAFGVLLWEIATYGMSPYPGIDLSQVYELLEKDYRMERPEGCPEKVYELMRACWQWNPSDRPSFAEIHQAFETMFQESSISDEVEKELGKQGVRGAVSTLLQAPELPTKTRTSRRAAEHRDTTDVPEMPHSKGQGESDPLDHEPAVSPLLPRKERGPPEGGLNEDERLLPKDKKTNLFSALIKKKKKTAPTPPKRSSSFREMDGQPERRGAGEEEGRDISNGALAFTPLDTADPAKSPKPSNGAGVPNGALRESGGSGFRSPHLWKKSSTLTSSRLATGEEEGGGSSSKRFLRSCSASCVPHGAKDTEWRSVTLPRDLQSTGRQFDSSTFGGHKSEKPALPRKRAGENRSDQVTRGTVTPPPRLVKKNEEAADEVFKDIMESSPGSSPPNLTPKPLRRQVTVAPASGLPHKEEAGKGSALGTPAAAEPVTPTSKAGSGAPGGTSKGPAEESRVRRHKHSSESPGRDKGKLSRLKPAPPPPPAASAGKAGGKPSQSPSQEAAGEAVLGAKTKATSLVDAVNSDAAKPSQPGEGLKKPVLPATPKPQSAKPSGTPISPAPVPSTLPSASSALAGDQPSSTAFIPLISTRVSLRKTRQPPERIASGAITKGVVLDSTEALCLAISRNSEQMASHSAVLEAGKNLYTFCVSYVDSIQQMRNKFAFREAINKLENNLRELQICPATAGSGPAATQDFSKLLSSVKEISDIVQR

NanoBRET tracer K-4 (Promega): the Kd was 38.6 nM.

The values are drawn from publication doi:10.1101/2021.06.28.449968v1 (biorxiv, 2021).
